# Laboratory results: PMC6627454, “Size and Flexibility Define the Inhibition of the H3N2 Influenza Endonuclease Enzyme by Calix[n]arenes” (Antibiotics, 2019)
# System: influenza virus
# Assay: not given
# Set-up: method as in PMID 30184455
# Details: clinical trials, compared to oseltamivir; cited from earlier work
row,SMILES,reduction in viral loads
1,COC(=O)OCOc1c2n(ccc1=O)N([C@@H]1c3ccccc3SCc3c1ccc(F)c3F)[C@@H]1COCCN1C2=O [Baloxavir Marboxil],greater reduction in viral loads

# Target: H3N2 influenza PA endonuclease (Influenza A virus, UniProt P31343)
# Assay: PA endonuclease inhibition assay (λ-DNA digestion, agarose gel electrophoresis)
# Assay type: biochemical, Influenza A/Victoria/3/1975 (H3N2)
# Details: 0.5 µg λ-DNA, PA endonuclease 0.5 mg/mL, 1 h at 37 °C, 1 mM MnCl2, pH 8; 3 measurements
# Description: The digestion activity of the purified PA endonuclease was quantified using agarose gel electrophoresis. A concentration range of PA endonuclease (0.5 mg/mL to 0.5 µg/mL) was mixed with 0.5 µg of λ-DNA (Takara, Japan) in buffer at a final concentration of 20 mM Tris HCl pH 8, 100 mM NaCl, 1 mM MnCl2, 10 mM β-mercaptoethanol. After one hour of incubation at 37 °C, the samples were deposited on ethidium bromide treated agarose gel 0.6% and run during 90 minutes at 75 V. The gel was then scanned (Figure S2). 100 µM solutions of each macrocyclic molecules (Scheme 1) were mixed with 0.5 µg of buffered λ-DNA. This mixture was then combined with the PA endonuclease enzyme and incubated for 1 hour at 37 °C. The samples were deposited on agarose gel 0.6% previously mixed with ethidium bromide and run during 90 minutes at 75 V, after which the gel was scanned. Digestion activity was plotted as a function of inhibitor concentration by quantifying the intensity of the digested bands with ImageJ software. The IC50 values were calculated as in our work on endonuclease inhibition. The intensity of λ-DNA bands was subtracted from negative control (λ-DNA lane) and then normalized from the positive control (λ-DNA and PA protein lane without inhibitor).
# 100 µM of each macrocyclic molecules β-CDsul, SC[n]a, SC[n]b, and SC[n]c (Figure 1) have been mixed to 0.5 µg of λ-DNA in a buffer at final concentration of 20 mM Tris HCl pH 8, 100 mM NaCl, 1 mM MnCl2, 10 mM β-mercaptoethanol.
# The mixture was then mixed with the PA endonuclease enzyme at 0.5 mg/mL and incubated for 1 h at 37 °C.
# The samples have been deposited on agarose gel 0.6% previously mixed with ethidium bromide and run over 90 min at 75 V. The gel was then scanned on the ChemiDoc XRS system (Bio-Rad).
# The digestion activity is then plotted as a matter of inhibitor concentration by quantifying the intensity of the digested bands with ImageJ software.
row,SMILES,IC50
1,"O=P(O)(O)Oc1c2cccc1Cc1cccc(c1O)Cc1cccc(c1OP(=O)(O)O)Cc1cccc(c1O)C2 [C4diP, Calix[4]arene dihydroxyphosphonic acid]",> 100 µM
2,"O=S(=O)(O)OC[C@H]1O[C@@H]2O[C@H]3[C@H](OS(=O)(=O)O)[C@@H](OS(=O)(=O)O)[C@@H](O[C@H]4[C@H](OS(=O)(=O)O)[C@@H](OS(=O)(=O)O)[C@@H](O[C@H]5[C@H](OS(=O)(=O)O)[C@@H](OS(=O)(=O)O)[C@@H](O[C@H]6[C@H](OS(=O)(=O)O)[C@@H](OS(=O)(=O)O)[C@@H](O[C@H]7[C@H](OS(=O)(=O)O)[C@@H](OS(=O)(=O)O)[C@@H](O[C@H]8[C@H](OS(=O)(=O)O)[C@@H](OS(=O)(=O)O)[C@@H](O[C@H]1[C@H](OS(=O)(=O)O)[C@H]2OS(=O)(=O)O)O[C@@H]8COS(=O)(=O)O)O[C@@H]7COS(=O)(=O)O)O[C@@H]6COS(=O)(=O)O)O[C@@H]5COS(=O)(=O)O)O[C@@H]4COS(=O)(=O)O)O[C@@H]3COS(=O)(=O)O [CD, Sulfated β-cyclodextrin, reference compound]",> 100 µM
3,"O=S(=O)(O)c1cc2c(O)c(c1)Cc1cc(S(=O)(=O)O)cc(c1O)Cc1cc(S(=O)(=O)O)cc(c1O)Cc1cc(S(=O)(=O)O)cc(c1O)C2 [SC4a, para-sulfonato-calix[4]arene]",> 100 µM
4,O=S(=O)(O)CCCOc1c2cccc1Cc1cccc(c1OCCCS(=O)(=O)O)Cc1cccc(c1OCCCS(=O)(=O)O)Cc1cccc(c1OCCCS(=O)(=O)O)C2 [SC4b],> 100 µM
5,O=S(=O)(O)CCCOc1c2cc(S(=O)(=O)O)cc1Cc1cc(S(=O)(=O)O)cc(c1OCCCS(=O)(=O)O)Cc1cc(S(=O)(=O)O)cc(c1OCCCS(=O)(=O)O)Cc1cc(S(=O)(=O)O)cc(c1OCCCS(=O)(=O)O)C2 [SC4c],> 100 µM
6,O=S(=O)(O)c1cc2c(O)c(c1)Cc1cc(S(=O)(=O)O)cc(c1O)Cc1cc(S(=O)(=O)O)cc(c1O)Cc1cc(S(=O)(=O)O)cc(c1O)Cc1cc(S(=O)(=O)O)cc(c1O)Cc1cc(S(=O)(=O)O)cc(c1O)C2 [SC6a],11.2 ± 3.6 µM
7,O=S(=O)(O)CCCOc1c2cccc1Cc1cccc(c1OCCCS(=O)(=O)O)Cc1cccc(c1OCCCS(=O)(=O)O)Cc1cccc(c1OCCCS(=O)(=O)O)Cc1cccc(c1OCCCS(=O)(=O)O)Cc1cccc(c1OCCCS(=O)(=O)O)C2 [SC6b],> 100 µM
8,O=S(=O)(O)CCCOc1c2cc(S(=O)(=O)O)cc1Cc1cc(S(=O)(=O)O)cc(c1OCCCS(=O)(=O)O)Cc1cc(S(=O)(=O)O)cc(c1OCCCS(=O)(=O)O)Cc1cc(S(=O)(=O)O)cc(c1OCCCS(=O)(=O)O)Cc1cc(S(=O)(=O)O)cc(c1OCCCS(=O)(=O)O)Cc1cc(S(=O)(=O)O)cc(c1OCCCS(=O)(=O)O)C2 [SC6c],> 100 µM
9,"O=S(=O)(O)c1cc2c(O)c(c1)Cc1cc(S(=O)(=O)O)cc(c1O)Cc1cc(S(=O)(=O)O)cc(c1O)Cc1cc(S(=O)(=O)O)cc(c1O)Cc1cc(S(=O)(=O)O)cc(c1O)Cc1cc(S(=O)(=O)O)cc(c1O)Cc1cc(S(=O)(=O)O)cc(c1O)Cc1cc(S(=O)(=O)O)cc(c1O)C2 [SC8a, para-sulfonato-calix[8]arene]",6.4 ± 1.4 µM
10,O=S(=O)(O)CCCOc1c2cccc1Cc1cccc(c1OCCCS(=O)(=O)O)Cc1cccc(c1OCCCS(=O)(=O)O)Cc1cccc(c1OCCCS(=O)(=O)O)Cc1cccc(c1OCCCS(=O)(=O)O)Cc1cccc(c1OCCCS(=O)(=O)O)Cc1cccc(c1OCCCS(=O)(=O)O)Cc1cccc(c1OCCCS(=O)(=O)O)C2 [SC8b],14 ± 2.2 µM
11,O=S(=O)(O)CCCOc1c2cc(S(=O)(=O)O)cc1Cc1cc(S(=O)(=O)O)cc(c1OCCCS(=O)(=O)O)Cc1cc(S(=O)(=O)O)cc(c1OCCCS(=O)(=O)O)Cc1cc(S(=O)(=O)O)cc(c1OCCCS(=O)(=O)O)Cc1cc(S(=O)(=O)O)cc(c1OCCCS(=O)(=O)O)Cc1cc(S(=O)(=O)O)cc(c1OCCCS(=O)(=O)O)Cc1cc(S(=O)(=O)O)cc(c1OCCCS(=O)(=O)O)Cc1cc(S(=O)(=O)O)cc(c1OCCCS(=O)(=O)O)C2 [SC8c],18.7 ± 0.7 µM

# Same assay, conditions: macrocycle at 100 µM
row,SMILES,inhibitory effect on PA endonuclease
1,"O=P(O)(O)Oc1c2cccc1Cc1cccc(c1O)Cc1cccc(c1OP(=O)(O)O)Cc1cccc(c1O)C2 [C4diP, Calix[4]arene dihydroxyphosphonic acid]",neither SC4 and its derivatives nor C4diP show any inhibitory effects
2,"O=S(=O)(O)c1cc2c(O)c(c1)Cc1cc(S(=O)(=O)O)cc(c1O)Cc1cc(S(=O)(=O)O)cc(c1O)Cc1cc(S(=O)(=O)O)cc(c1O)C2 [SC4a, para-sulfonato-calix[4]arene]",neither SC4 and its derivatives nor C4diP show any inhibitory effects

# System: PA endonuclease
# Assay: not given
# Details: PA endonuclease, in vitro assays only; read-out: Inhibition Activity IC50; cited from earlier work
row,SMILES,IC50
1,O=C(O)c1c[nH]cc(O)c1=O [5-hydroxy-4-pyridone-3-carboxy acid],3.23 µM
2,O=c1[nH]cncc1O [5-hydroxypyrimidin-4(3H)-one],0.15 µM

# Same assay, conditions: PA endonuclease; read-out: Inhibition Activity IC50; cited from earlier work
row,SMILES,IC50
1,O=C1c2c(O)c(=O)ccn2N([C@@H]2c3ccccc3SCc3c2ccc(F)c3F)[C@@H]2COCCN12 [Baloxavir Acid],0.00023 µM

# Same assay, conditions: in vitro assay, viral PA polymerase unit; read-out: IC50; cited from earlier work
row,SMILES,IC50
1,O=C1c2c(O)c(=O)ccn2N([C@@H]2c3ccccc3SCc3c2ccc(F)c3F)[C@@H]2COCCN12 [Baloxavir Acid],0.0025 µM
